pIC50: −log10 of the molar value.

The experiment addresses T1, human SCD1 (hSCD-1) (Homo sapiens, UniProt O00767).
T1 construct: made in house; host or cells: baculovirus/Sf9
T1 sequence (O00767 1-359): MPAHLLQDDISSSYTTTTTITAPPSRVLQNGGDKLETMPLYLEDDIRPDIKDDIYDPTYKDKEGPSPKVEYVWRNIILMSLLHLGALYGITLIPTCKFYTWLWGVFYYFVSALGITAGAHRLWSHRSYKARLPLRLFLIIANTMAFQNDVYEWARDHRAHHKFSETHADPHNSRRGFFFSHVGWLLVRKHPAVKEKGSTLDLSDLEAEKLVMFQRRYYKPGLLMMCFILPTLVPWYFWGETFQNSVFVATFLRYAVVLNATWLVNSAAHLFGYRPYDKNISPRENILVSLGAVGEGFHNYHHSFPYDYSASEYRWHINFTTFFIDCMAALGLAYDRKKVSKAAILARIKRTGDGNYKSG
Put plainly: SCD enzyme activity assay, reconstituted human SCD1 (hSCD-1). It is filed as biochemical. As to conditions: human SCD1, conversion of [3H]-stearoyl-CoA. On the procedure: The potency of compounds of formula I against the stearoyl-CoA desaturase was determined by measuring the conversion of radiolabeled stearoyl-CoA to oleoyl-CoA using rat liver microsome or human SCD1 (hSCD-1) following previously published procedures with some modifications (Joshi, et al., J. Lipid Res., 18: 32-36 (1977); Talmo, et al., Anal. Biochem, 29: 300-304 (1969)). Liver microsome was prepared from male Wistar or Sprague Dawley rats on a high carbohydrate diet for 3 days (LabDiet #5803, Purina). The livers were homogenized (1:10 w/v) in a buffer containing 250 mM sucrose, 1 mM EDTA, 5 mM DTT and 50 mM Tris-HCl (pH 7.5). After a 100,000×g centrifugation for 60 min, the liver microsome pellet was suspended in a buffer containing 100 mM sodium phosphate, 20% glycerol, 2 mM DTT, and stored at −78° C. Human SCD1 desaturase system was reconstituted using human SCD1 from a baculovirus/Sf9 expression system, cytochrome B5 and cytochrome B5 reductase. Typically, test compound in 2 μL DMSO was incubated for 15 min at room temperature with 180 μL of the SCD enzyme in a buffer containing 100 mM Tris-HCl (pH 7.5), ATP (5 mM), Coenzyme-A (0.1 mM), Triton X-100 (0.5 mM) and NADH (2 mM). The reaction was initiated by the addition of 20 μL of [^3H]-stearoyl-CoA (final concentration=2 μM, radioactivity concentration=1 μCi/mL). After 10 min, the reaction mixture (80 μL) was mixed with a calcium chloride/charcoal aqueous suspension (100 μL charcoal (10% w/v) plus 25 μL CaCl2 (2N). After centrifugation to precipitate the radioactive fatty acid species, tritiated water released from 9,10-[^3H]-stearoyl-CoA by the SCD enzyme was quantified on a scintillation counter.
`CS(=O)(=O)c1cnc2[nH]c(-c3ccc(-c4ccccc4F)cc3)nc2c1` gave a pIC50 of 6.95.

`CS(=O)(=O)c1ccn2cc(-c3ccc(-c4cccc(Cl)c4)cc3)nc2c1` gave a pIC50 of 7.89.

Compound `CS(=O)(=O)c1ccc2nc(-c3ccc(-c4cccc(F)c4)cc3)[nH]c2c1` gave a negative-log IC50 (pIC50) of 7.59.

In the case of `CS(=O)(=O)c1ccc2nc(-c3ccc(-c4ccccc4F)nc3)[nH]c2c1`, the pIC50 is 7.57.

On to `CS(=O)(=O)c1ccc2[nH]c(-c3ccc(-c4cccs4)cc3)nc2c1`, for which the pIC50 is 6.64.

As usually defined, the pIC50 is −log10 of the IC50, conventionally taken in molar units. Read a low pIC50 as a large IC50.

(Values after patent US20110021532A1, “NOVEL SUBSTITUTED HETEROAROMATIC COMPOUNDS AS INHIBITORS OF STEAROYL-COENZYME A DELTA-9 DESATURASE” (Merck Frosst Canada Ltd., priority 2008, published 2011).)
